Biological target: T1, KIT (Homo sapiens, UniProt P10721)
T1 construct: recombinant cytoplasmic portion of KIT, wild type (ProQinase #0997-0000-1)
Experiment: MicroScale Thermophoresis (MST)
Assay type: binding

T1 sequence (P10721 544-976 limits assumed): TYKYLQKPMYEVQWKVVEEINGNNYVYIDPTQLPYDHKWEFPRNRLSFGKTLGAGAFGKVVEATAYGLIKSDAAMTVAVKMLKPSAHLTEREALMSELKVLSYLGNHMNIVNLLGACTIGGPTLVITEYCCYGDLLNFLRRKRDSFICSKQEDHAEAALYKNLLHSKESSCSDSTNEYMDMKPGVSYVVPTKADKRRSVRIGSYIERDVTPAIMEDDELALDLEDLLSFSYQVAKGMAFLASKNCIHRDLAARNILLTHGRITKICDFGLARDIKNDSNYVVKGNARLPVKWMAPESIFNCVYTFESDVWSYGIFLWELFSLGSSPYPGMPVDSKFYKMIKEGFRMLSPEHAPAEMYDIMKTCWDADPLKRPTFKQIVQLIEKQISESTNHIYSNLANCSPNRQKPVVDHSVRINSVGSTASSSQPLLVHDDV

SMILES	Kd [µM]
Cn1cc(-c2ccc3c(c2)CCN3C(=O)Cc2cccc(C(F)(F)F)c2)c2c(N)ncnc21 [GSK414, 7-methyl-5-(1-{[3-(trifluoromethyl)phenyl]acetyl}-2,3-dihydro-1H-indol-5-yl)-7H-p yrrolo[2,3-d]pyrimidin-4-amine]	0.664 ± 0.294
CC(C)(C)c1nc(-c2ccc(NC(=O)Nc3cccc(C(F)(F)F)c3)c3ccccc23)c2c(N)nccn12 [KIRA6]	10.8 ± 2.9
